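Interpolation was linear, between the two tested concentrations surrounding the appropriate level; five concentrations were tested over 48 hours in 96-well plates. At the GI50, growth is halved. TGI denotes the concentration required for complete inhibition of growth.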
Key:
Assay in all cases: inhibition of tumour cell growth, NCI panel, 48 h
786-0 renal = system: 786-0 renal
HOP-62 NSCLC = system: HOP-62 NSCLC
HOP-92 NSCLC = system: HOP-92 NSCLC
MCF7 breast = system: MCF7 breast
OVCAR-3 ovarian = system: OVCAR-3 ovarian
PC-3 prostate = system: PC-3 prostate
SNB-75 CNS = system: SNB-75 CNS
T-47D breast = system: T-47D breast
U251 CNS = system: U251 CNS
DMS 114 small cell lung = system: DMS 114 small cell lung
DMS 273 small cell lung = system: DMS 273 small cell lung
LXFL 529 NSCLC = system: LXFL 529 NSCLC

Structure (SMILES)	TGI (786-0 renal) [µM]	TGI (HOP-62 NSCLC) [µM]	TGI (HOP-92 NSCLC) [µM]	TGI (MCF7 breast) [µM]	TGI (OVCAR-3 ovarian) [µM]	TGI (PC-3 prostate) [µM]	TGI (SNB-75 CNS) [µM]	TGI (T-47D breast) [µM]	TGI (U251 CNS) [µM]	TGI (DMS 114 small cell lung) [µM]	TGI (DMS 273 small cell lung) [µM]	TGI (LXFL 529 NSCLC) [µM]	GI50 (HOP-92 NSCLC) [µM]
O=C1C=C(N2CCN(c3ccccn3)CC2)C(=O)c2c(O)ccc(O)c21	42.9	47.7	> 54.1	18.6	20.3	> 56.2	23.7	> 100	23	–	–	–	–
CCCCCCCCCCCCCCCCOCC(Cl)COP(=O)(O)OP(=O)(O)OCC1OC(n2cnc3c(N)ncnc32)C(O)C1O (stereo not drawn)	> 100	> 100	> 100	> 100	> 100	96.8	89.7	> 100	> 100	–	–	–	–
O=C1CC2(CCNCC2)C(=O)N1N1CCOCC1	> 100	> 100	> 100	> 100	> 100	> 100	> 100	> 100	> 100	–	–	–	–
CC1(C)COC(c2c(-c3ccccc3)noc2CS(=O)c2ccccc2)=N1 (stereo not drawn)	> 100	> 100	–	–	> 100	–	> 100	–	> 100	99.1	> 100	> 100	–
C/C(=N\Nc1ccccc1)C(CN(C)C)C(c1ccccc1)c1c(O)c2ccccc2oc1=O (stereo not drawn)	> 100	> 100	97	> 100	> 100	> 100	> 100	> 100	> 100	> 100	–	> 100	–
NC(=O)C1=CC2C3C=CC2(O)C(=O)OC3O1 (stereo not drawn)	16	29.9	6.73	18.5	24.7	37.7	29.4	15.1	40.5	–	–	–	–
COC(=O)CC(NC(=O)OCc1ccccc1)C(C(=O)OCc1ccccc1)C1(C)OCCO1 (stereo not drawn)	> 100	> 100	–	–	> 100	–	73.2	–	> 100	82.6	> 100	73	–
CCCNC(=O)CCC(C)[C@H]1CCC2C3C(C[C@H](OC(C)=O)[C@@]21C)[C@@]1(C)CCC2(C[C@H]1C[C@H]3OC(C)=O)OOC1(CCCCC1)OO2 (stereo partly drawn)	6.53	1.34	3.82	> 56.1	5.3	7.08	6.86	6.44	3.84	–	–	–	1.42
O=C(CSc1nc2ccc(I)cc2c(=O)n1Cc1ccccc1)NN1C(=O)CCC1=O	> 100	> 100	64.7	> 100	70.6	> 100	> 100	> 100	> 100	–	–	–	–
COc1ccc(C(=O)c2ccc(-n3cc(/C=C/[N+](=O)[O-])c4ccccc43)cc2)cc1	11.2	35.4	34.9	> 34.2	27.1	49.9	> 100	6.41	24.9	–	–	–	–
O=C1OI(C#Cc2ccccc2)c2ccccc21	11.2	22.6	5.66	14.9	10.6	18.3	10.3	10.8	6.13	–	–	–	–
CC12CC(C/C1=N/O)C(C)(C)C2 (stereo not drawn)	> 100	> 100	> 100	> 100	> 100	> 100	> 100	> 100	> 100	–	–	–	–
NC(=S)N/N=C\CC(O)(C(F)(F)F)C(F)(F)F	> 10	> 10	> 10	> 10	> 10	> 10	> 10	> 10	> 10	–	–	–	–
CCCCCCOP(=O)(OCCCCCC)OC(C(=O)OC)C(F)(F)F (stereo not drawn)	> 100	> 100	> 100	> 100	> 100	> 100	> 100	> 100	> 100	–	–	–	–
CCOC(=O)c1nc2ccccc2nc1NCc1ccc(Cl)cc1Cl	> 100	> 100	> 100	> 100	> 100	> 100	> 100	> 100	> 100	–	–	–	–
O=C(/C=C/c1ccco1)c1cccc(C(=O)/C=C/c2ccco2)n1	20.5	> 88.6	> 81.9	> 100	> 100	> 100	> 100	> 100	22.6	–	–	–	–
C/C(=C\Cc1cc(O)ccc1O)CCc1c(C)cc(O)c(C=O)c1C	62.6	–	35.3	–	53.1	–	77.4	–	67.6	31.2	55.4	30.2	–
